# Measured values taken from ChEMBL document CHEMBL1201862, “PubChem BioAssay data set” (2004).
# Calls of active or inactive are those of the source.
# Tests used:
# [1] = biological target: T1, Heat shock factor protein 1 (Mus musculus, UniProt P38532); test: inhibition of MG132-induced HSE-luciferase signal, confirmation, cell-based, NIH3T3, luminescence, dose retest (AID 2382); assay type: functional;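 also: NIH3T3 fibroblasts with HSF1-driven luciferase reporter stressed by proteasome inhibitor MG132; luminescence from HSF1-driven luciferase expression after 8 hours of MG132 stress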
# T1 sequence (P38532 whole entry): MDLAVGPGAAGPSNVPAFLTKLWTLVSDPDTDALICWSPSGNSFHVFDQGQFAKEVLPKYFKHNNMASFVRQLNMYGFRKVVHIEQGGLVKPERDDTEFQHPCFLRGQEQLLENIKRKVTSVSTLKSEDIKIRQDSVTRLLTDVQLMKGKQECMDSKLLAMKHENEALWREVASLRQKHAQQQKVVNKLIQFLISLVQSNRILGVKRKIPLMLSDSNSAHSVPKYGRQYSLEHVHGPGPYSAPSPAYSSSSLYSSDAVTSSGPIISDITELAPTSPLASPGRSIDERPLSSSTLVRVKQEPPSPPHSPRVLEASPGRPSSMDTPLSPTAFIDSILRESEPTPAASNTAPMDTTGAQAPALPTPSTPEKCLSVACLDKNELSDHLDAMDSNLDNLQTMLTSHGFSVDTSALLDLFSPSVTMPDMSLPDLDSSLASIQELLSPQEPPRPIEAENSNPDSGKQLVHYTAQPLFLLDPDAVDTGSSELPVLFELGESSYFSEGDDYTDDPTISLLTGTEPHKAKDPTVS
# [2] = biological target: Voltage-dependent T-type calcium channel subunit alpha-1H (Homo sapiens, UniProt O95180); assay type: functional;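 also: channel activity triggered by adding a high calcium stimulation buffer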
# [3] = Shn3 3'UTR reporter inhibitors, dose response, cell-based, Clone20 osteoblasts, firefly luciferase, cherry-picked (AID 624132); assay type: functional;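 also: firefly luciferase luminescence from reporter carrying the Shn3 3'UTR in osteoblasts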
# [4] = tested on: INS1; test: beta cell apoptosis inhibitors, cytokine rescue, dose response, luminescence, retest (AID 449756); assay type: functional, cell-based; details: Rattus norvegicus;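 also: cell death triggered by IL-1 beta plus TNF-alpha plus IFN-gamma mixture; protective hits raise ATP signal compared with cytokine alone wells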
# [5] = control 3'UTR Renilla luciferase suppression, dose response, counter-screen for Shn3 inhibitor project, cell-based, Clone20-Shn3RL, cherry-picked (AID 624133); assay type: functional
# [6] = biological target: T2, Polyadenylate-binding protein 1 (Homo sapiens, UniProt P11940); test: PABP1 MLLE–PAM2 binding inhibitor potency, dose response, biochemical, fluorescence polarization, FITC-PAM2 peptide (AID 602259); assay type: functional; details: read-out: IC50_Mean
# [7] = biological target: T2, Polyadenylate-binding protein 1; test: PABP1 MLLE–PAM2 interaction inhibitors, dose response, miRNA deadenylation inhibitor project, biochemical, fluorescence polarization, Cy5-PAM2 peptide, secondary (AID 602260); assay type: functional; details: read-out: IC50_Mean
# [8] = biological target: T3, Carboxy-terminal domain RNA polymerase II polypeptide A small phosphatase 1 (Homo sapiens, UniProt Q9GZU7); test: inhibitors of CTDSP1, concentration-response testing, biochemical assay, absorbance-based, actives from ultra-high-throughput screening (AID 540297); assay type: functional
# T3 sequence (Q9GZU7 whole entry): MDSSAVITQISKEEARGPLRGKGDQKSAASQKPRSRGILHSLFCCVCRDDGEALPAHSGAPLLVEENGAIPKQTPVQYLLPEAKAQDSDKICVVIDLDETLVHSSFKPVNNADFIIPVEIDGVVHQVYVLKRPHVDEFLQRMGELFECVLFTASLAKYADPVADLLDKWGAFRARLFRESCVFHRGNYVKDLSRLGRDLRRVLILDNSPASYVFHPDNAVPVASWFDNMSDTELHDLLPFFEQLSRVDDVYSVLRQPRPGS
# [9] = biological target: T4, Caspase-6 (Homo sapiens, UniProt P55212); test: human caspase-6 inhibitors, dose response, biochemical, VEID-R110 fluorescence, cherry-pick (AID 720632)
# T4 sequence (P55212 whole entry): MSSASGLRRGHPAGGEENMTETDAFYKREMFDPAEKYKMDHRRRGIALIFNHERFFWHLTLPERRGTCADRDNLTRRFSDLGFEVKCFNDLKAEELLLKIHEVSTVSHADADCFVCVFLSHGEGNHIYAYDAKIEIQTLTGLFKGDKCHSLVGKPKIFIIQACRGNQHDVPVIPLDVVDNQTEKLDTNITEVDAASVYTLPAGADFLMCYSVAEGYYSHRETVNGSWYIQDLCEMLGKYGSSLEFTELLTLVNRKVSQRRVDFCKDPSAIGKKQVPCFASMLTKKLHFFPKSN
# [10] = Luminescence Cell-Based Dose Response HTS to Identify Activators of Luciferase Translation or Activity in H4 […] Cells. [Related pubchem assays: 1829 (Project Summary), 1814 (Primary HTS)]; assay type: functional
# [11] = tested on: H4; test: Luminescence Cell-Based Dose Response HTS to Identify Activators of 5'UTR Stem-Loop Driven Prion Protein mRNA Translation in H4 Neuroglioblastoma Cells. [Related pubchem assays: 1829 (Project Summary), 1814 (Primary HTS)]; assay type: functional; details: Homo sapiens
# [12] = Luminescence Cell-Based Dose Confirmation HTS to Identify Activators of 5'UTR Stem-Loop Driven Alpha-Synuclein mRNA Translation in H4 Neuroglioblastoma Cells. [Related pubchem assays: 1829 (Project Summary), 1814 (Primary HTS)]; assay type: functional
# [13] = biological target: T5, Replicative DNA helicase DnaB (Mycobacterium tuberculosis, UniProt P9WMR3); test: DnaB intein splicing inhibitors, dose response, biochemical, cell-free fluorescence (AID 449749); assay type: functional
# T5 sequence (P9WMR3 whole entry): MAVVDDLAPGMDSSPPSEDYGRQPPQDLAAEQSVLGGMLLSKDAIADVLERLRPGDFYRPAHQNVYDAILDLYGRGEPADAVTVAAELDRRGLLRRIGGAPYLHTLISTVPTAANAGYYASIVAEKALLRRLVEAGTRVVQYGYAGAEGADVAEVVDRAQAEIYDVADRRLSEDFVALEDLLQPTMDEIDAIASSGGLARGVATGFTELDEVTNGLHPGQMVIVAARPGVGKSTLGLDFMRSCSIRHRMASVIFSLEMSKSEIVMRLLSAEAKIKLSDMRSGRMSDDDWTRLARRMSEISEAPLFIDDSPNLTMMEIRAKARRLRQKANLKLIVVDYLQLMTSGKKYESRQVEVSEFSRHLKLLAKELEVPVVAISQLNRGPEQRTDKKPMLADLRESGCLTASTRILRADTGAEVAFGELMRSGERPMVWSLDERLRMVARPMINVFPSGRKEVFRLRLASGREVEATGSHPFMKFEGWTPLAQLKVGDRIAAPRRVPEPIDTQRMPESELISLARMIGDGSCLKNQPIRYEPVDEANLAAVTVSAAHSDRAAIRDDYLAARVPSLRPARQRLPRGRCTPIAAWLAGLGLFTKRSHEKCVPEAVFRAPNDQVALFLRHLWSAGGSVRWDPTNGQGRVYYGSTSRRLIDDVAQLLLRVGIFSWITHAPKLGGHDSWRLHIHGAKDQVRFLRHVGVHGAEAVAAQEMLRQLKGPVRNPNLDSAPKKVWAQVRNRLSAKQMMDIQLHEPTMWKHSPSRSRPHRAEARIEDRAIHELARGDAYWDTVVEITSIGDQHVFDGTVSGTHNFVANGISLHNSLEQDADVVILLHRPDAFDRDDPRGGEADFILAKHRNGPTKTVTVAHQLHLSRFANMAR
# [14] = biological target: T6, Protein RecA (Mycobacterium tuberculosis, UniProt P9WHJ3); test: Fluorescence Cell-Free Homogeneous Dose Retest to Identify Inhibitors of RecA-Intein Splicing Activity. [Related pubchem assays (depositor defined):AID2097, AID2223, AID489010, AID492950]; assay type: functional
# T6 sequence (P9WHJ3 whole entry): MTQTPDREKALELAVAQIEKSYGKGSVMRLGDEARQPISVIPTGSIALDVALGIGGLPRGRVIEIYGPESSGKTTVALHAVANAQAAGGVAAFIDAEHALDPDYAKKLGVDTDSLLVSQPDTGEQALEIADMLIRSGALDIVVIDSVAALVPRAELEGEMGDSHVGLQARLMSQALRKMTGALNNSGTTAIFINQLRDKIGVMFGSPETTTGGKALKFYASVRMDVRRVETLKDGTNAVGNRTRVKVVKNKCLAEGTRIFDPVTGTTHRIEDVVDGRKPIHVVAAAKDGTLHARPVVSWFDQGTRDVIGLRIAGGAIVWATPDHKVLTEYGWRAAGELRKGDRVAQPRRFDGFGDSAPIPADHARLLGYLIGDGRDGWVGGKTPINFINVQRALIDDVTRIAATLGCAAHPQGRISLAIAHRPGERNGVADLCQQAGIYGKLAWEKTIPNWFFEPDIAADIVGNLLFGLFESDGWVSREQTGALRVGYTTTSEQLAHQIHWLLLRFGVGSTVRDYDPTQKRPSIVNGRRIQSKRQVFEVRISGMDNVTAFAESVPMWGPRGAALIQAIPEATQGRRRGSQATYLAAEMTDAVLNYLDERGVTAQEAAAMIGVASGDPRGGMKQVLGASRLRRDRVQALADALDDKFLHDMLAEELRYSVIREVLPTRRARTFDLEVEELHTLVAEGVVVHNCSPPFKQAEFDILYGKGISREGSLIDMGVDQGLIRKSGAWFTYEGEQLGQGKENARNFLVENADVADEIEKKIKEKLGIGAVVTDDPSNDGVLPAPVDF
# [15] = HepG2 cell cytotoxicity, dose response, cytotoxicity control for Shn3 inhibitor project, CellTiter-Glo, cherry-picked (AID 624134); assay type: functional, cell-based
# [16] = biological target: Cytochrome P450 3A4 (Homo sapiens, UniProt P08684);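 also: CYP3A4 tested as one member of a cytochrome P450 panel screen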
# [17] = biological target: T7, Microphthalmia-associated transcription factor (Homo sapiens, UniProt O75030); test: TRPM1 promoter luciferase signal decrease, dose response, MITF inhibitor project, cell-based, SK-MEL-5, cherry-picked, set 3 (AID 493073); assay type: functional
# T7 sequence (O75030 whole entry): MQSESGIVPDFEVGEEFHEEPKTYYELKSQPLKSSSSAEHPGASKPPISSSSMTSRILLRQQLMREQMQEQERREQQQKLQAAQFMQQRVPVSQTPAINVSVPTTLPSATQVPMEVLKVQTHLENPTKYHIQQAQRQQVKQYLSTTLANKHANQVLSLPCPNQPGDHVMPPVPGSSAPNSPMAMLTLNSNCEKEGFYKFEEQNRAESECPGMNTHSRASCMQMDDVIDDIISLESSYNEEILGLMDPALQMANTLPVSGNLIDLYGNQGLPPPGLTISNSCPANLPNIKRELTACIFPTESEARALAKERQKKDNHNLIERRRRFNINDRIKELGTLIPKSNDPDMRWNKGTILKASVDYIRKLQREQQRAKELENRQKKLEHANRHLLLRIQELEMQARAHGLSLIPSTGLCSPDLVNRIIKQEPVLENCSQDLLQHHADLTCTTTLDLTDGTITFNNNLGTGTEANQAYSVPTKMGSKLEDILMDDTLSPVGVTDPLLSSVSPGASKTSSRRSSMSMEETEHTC
# [18] = inhibitors of HIV Env-driven cell fusion, dose response, cherry-pick (AID 652057); assay type: functional, cell-based
# [19] = ZM109 Env clade C HIV-1 fusion inhibitors, dose response, HeLa effector, CEM target cells, luciferase, cherry-pick (AID 652058); assay type: functional, cell-based
# [20] = inhibitors of clade B AD8 Env fusion, dose response, cell-based, cherry-pick (AID 652062); assay type: functional;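 also: luciferase signal from cell-cell fusion driven by HIV-1 clade B AD8 Env; potency is for inhibitors of fusion seen as a drop in luminescence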
# T2 sequence (P11940 whole entry): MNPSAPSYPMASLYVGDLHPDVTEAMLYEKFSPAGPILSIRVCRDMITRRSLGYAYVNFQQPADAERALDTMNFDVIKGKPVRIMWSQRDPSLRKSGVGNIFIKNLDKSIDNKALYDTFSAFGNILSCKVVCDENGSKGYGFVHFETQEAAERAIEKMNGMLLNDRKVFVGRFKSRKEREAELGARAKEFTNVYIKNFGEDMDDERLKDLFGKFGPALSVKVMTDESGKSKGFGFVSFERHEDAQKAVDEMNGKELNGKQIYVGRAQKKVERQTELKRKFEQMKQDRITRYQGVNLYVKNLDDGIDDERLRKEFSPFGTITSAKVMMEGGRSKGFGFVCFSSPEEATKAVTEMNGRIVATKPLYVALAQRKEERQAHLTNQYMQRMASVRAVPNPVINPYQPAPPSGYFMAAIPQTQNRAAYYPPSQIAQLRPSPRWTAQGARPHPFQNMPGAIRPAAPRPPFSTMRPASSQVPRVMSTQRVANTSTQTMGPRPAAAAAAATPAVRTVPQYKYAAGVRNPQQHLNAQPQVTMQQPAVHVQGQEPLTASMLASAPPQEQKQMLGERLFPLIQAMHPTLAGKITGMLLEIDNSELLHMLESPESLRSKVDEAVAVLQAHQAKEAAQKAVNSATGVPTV
# Chain of Voltage-dependent T-type calcium channel subunit alpha-1H (O95180 whole entry): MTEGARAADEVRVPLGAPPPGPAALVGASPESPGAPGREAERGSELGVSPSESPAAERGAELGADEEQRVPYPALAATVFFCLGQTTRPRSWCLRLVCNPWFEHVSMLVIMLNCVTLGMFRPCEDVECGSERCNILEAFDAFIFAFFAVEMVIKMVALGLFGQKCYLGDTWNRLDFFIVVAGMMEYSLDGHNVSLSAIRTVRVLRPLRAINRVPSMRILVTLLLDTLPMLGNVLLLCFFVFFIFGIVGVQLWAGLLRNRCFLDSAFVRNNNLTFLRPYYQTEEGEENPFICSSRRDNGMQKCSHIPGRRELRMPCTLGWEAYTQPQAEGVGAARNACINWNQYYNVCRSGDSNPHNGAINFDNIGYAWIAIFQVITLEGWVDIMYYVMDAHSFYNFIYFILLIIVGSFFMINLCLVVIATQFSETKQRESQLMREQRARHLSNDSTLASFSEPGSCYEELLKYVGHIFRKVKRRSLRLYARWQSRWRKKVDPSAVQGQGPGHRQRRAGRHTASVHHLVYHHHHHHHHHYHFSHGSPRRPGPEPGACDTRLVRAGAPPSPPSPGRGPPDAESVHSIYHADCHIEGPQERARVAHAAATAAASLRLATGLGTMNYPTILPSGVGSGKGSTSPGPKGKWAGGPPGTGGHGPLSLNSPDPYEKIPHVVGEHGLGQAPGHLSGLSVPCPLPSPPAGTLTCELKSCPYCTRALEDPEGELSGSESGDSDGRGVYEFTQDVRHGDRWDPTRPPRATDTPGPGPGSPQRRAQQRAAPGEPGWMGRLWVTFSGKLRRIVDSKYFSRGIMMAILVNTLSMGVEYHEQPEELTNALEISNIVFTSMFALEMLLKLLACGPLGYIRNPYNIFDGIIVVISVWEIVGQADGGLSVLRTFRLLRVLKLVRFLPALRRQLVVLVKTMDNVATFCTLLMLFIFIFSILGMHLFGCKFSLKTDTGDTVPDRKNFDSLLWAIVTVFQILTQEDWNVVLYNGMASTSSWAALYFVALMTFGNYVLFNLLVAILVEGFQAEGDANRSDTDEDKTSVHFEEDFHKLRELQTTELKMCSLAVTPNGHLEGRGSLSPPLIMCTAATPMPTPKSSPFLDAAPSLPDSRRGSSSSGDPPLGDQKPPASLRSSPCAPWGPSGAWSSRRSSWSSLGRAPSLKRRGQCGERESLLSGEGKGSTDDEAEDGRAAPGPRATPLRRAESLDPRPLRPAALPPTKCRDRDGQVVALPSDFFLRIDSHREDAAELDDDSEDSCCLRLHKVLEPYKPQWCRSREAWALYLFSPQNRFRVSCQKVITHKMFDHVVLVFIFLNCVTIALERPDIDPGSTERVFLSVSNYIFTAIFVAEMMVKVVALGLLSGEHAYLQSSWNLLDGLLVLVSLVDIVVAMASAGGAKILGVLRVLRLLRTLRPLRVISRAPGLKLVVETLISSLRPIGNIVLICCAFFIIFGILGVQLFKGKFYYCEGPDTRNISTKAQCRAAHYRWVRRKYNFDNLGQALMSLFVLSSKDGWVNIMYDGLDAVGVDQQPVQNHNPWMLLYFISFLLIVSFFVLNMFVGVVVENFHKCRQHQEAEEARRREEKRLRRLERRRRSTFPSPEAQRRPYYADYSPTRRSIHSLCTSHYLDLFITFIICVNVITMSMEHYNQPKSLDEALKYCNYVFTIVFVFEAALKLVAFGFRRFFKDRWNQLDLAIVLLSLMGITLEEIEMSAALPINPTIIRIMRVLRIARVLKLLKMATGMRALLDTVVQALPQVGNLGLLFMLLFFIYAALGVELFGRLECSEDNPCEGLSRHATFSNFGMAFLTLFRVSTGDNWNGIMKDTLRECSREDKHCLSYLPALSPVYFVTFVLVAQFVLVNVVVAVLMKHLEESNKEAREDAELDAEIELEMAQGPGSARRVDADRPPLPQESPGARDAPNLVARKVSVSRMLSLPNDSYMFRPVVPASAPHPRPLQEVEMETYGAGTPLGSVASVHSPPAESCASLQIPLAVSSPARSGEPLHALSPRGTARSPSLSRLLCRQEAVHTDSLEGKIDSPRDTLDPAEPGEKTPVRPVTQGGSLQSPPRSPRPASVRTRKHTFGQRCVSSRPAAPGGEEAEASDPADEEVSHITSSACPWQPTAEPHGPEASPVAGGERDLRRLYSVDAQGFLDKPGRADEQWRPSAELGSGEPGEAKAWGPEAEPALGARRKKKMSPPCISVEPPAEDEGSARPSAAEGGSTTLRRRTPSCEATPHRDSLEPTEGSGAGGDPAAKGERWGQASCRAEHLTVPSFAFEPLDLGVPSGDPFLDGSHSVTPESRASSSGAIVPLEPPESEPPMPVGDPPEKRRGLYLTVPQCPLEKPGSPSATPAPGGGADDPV
# Chain of Cytochrome P450 3A4 (P08684 whole entry): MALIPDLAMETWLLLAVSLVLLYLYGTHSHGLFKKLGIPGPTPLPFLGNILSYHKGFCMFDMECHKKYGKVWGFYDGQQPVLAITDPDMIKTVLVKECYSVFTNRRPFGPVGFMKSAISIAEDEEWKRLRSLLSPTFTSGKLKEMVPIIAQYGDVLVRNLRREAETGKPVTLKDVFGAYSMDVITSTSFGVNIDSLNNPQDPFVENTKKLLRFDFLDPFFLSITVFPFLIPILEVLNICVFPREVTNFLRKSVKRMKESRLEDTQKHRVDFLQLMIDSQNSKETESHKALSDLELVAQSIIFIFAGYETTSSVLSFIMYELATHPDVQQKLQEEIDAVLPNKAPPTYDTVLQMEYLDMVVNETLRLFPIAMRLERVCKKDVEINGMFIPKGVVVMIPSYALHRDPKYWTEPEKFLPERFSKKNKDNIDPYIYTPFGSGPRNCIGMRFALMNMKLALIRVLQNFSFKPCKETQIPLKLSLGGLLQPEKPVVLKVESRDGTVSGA
compound,measurement,setting,value
O=C(C1CCCN(S(=O)(=O)c2ccc(Cl)cc2)C1)N(Cc1cccs1)C1CC1 (stereo unspecified),EC50,[1],> 195 µM (not active)
same,EC50,[2],6.78 µM (active)
CN1/C(=C\C(=O)CN2C(=O)NC3(CCCCCC3)C2=O)C(C)(C)c2ccccc21,AC50,[3],2.66 µM (active)
same,EC50,[2],27.4 µM (active)
same,AC50,[4],4.56 µM (active)
same,AC50,[5],12.3 µM (active)
N#CCCN(C(=O)CSc1ccc2c(c1)OCCO2)c1ccccc1,IC50,[6],> 66 µM (inactive)
same,IC50,[7],> 66 µM (inactive)
O=C(O)/C(=C\c1cccc([N+](=O)[O-])c1)c1ccc(S(=O)(=O)N2CCCCC2)s1,IC50,[8],9.53 µM (active)
same,AC50,[9],13.9 µM (active)
Cn1c(CSc2nc3ccccc3s2)nc2ccccc21,EC50,[10],2.94 µM (active)
same,EC50,[11],19.9 µM (active)
same,EC50,[2],17.4 µM (active)
same,EC50,[12],43.2 µM (active)
CC(=O)c1c(Cl)nc2cccc3c2c1-c1ccccc1C3=O,AC50,[13],> 380 µM (inactive)
same,EC50,[14],0.297 µM (inconclusive)
same,IC50,[6],55.6 µM (inactive)
same,IC50,[7],> 66 µM (inactive)
CCOC(=O)C1CCCN(C(=O)c2ccccc2SCCOC)C1 (stereo unspecified),IC50,[6],> 66 µM (inactive)
same,IC50,[7],> 66 µM (inactive)
O=S(=O)(Nc1ccccc1Cl)c1cccc2nsnc12,IC50,[8],11.2 µM (active)
same,AC50,[9],25.9 µM (active)
CCN(CC)S(=O)(=O)c1ccc(N(C)Cc2ccc(C(F)(F)F)cc2)nc1,AC50,[15],41.1 µM (active)
same,AC50,[3],5.85 µM (active)
same,EC50,[2],10.4 µM (active)
same,AC50,[5],25.9 µM (active)
c1ccc2c(c1)nnn2Cc1nnc2sc(-c3ccc4c(c3)OCCO4)nn12,IC50,[6],> 66 µM (inactive)
same,IC50,[7],> 66 µM (inactive)
Cc1nc(N)nc(S)c1CCCNc1ccccc1,AC50,[16],6.31 µM (inconclusive)
same,IC50,[6],> 66 µM (inactive)
same,IC50,[7],> 66 µM (inactive)
NC(=O)c1cc([N+](=O)[O-])ccc1NCc1ccc(N)cc1,AC50,[17],1.41 µM (active)
N=c1c(C(=O)NCc2ccco2)cc2c(=O)n3ccccc3nc2n1CC1CCCO1 (stereo unspecified),IC50,[6],39.5 µM (inactive)
same,IC50,[7],> 66 µM (inactive)
O=C(NC(Sc1ccc(Cl)cc1)C(=O)O)c1ccccc1 (stereo unspecified),IC50,[6],> 66 µM (inactive)
same,IC50,[7],> 66 µM (inactive)
C[C@H](CO)N1C[C@H](C)[C@H](CN(C)S(=O)(=O)c2ccc(F)cc2)Oc2cc(Br)ccc2S1(=O)=O,AC50,[18],1.5 µM (active)
same,AC50,[19],1.13 µM (active)
same,AC50,[20],4.74 µM (active)
C[C@@H]1CN([C@@H](C)CO)C(=O)c2cccc(NC(=O)C3CCCCC3)c2O[C@H]1CN(C)Cc1ccccc1,AC50,[18],39.6 µM (active)
same,AC50,[19],10.8 µM (active)
same,AC50,[20],22.1 µM (active)
CCCC#Cc1ccc2c(c1)O[C@H](CN(C)S(=O)(=O)c1cccc(F)c1)[C@H](C)CN([C@@H](C)CO)S2(=O)=O,AC50,[18],25 µM (active)
same,AC50,[19],15.2 µM (active)
same,AC50,[20],25.9 µM (active)
CO[C@H]1CN(C)C(=O)c2ccc(NS(=O)(=O)c3cccc(Cl)c3)cc2OC[C@@H](C)NC[C@H]1C,AC50,[9],19.7 µM (active)
